Experimental data published in patent publication US20230255930A1, “METHOD OF INCREASING THE POPULATION OF COPROCOCCUS SPP. IN THE GUT MICROBIOME” (priority 2020, published 2023).

How the values were obtained:
[1] = test system: Coprococcus; assay: In vitro intestinal batch fermentation with human fecal suspension; 16S rRNA Illumina sequencing; type: cell-based; details: fermentation supernatant at 24 h, versus control
Experimental: At the start of this intestinal batch fermentation incubation, all test ingredients were added from stock solutions to the modified nutritional medium, containing (g/l): 2.5 K2HPO4, 10.9 KH2PO4, 2 NaHCO3, 2 yeast extract, 2 peptone, 1 mucin, 0.5 cysteine, 2 Tween 80, 2 glucose, 2 starch, 2 cellobiose, 0.1 NaCl, 0.01 MgSO4.7H2O, 0.01 CaCl2.6H2O, 0.05 hemin, 0.5 bile salts.
The following compounds were added from stock solutions prepared in water: • Beta-carotene, • Vitamin B3, • Vitamin B5, • Vitamin B7, • Fructooligosaccharides Fructooligosaccharides are included as a positive control.
As a source of the microbial community, freshly prepared fecal suspension from a human donor was added to the reactors. […] All tests, except the blanks, were performed in single repetition. Incubation conditions were 48 h at 37° C., under shaking (90 rpm) and anaerobic conditions.
Microbial composition: Illumina sequencing was performed at the start and after 24 h of incubation. The technique targets the16S rRNA gene that consists of variable and conserved regions, spread over the gene. Due to their key role in protein expression, the conserved regions are characterized by very low evolutionary rates.
The methodology applied involves primers that span 2 hypervariable regions (V3-V4) of the 16S rRNA gene. Using a pair-end sequencing approach, sequencing of 2×250 bp results in 424 bp amplicons. Such fragments are taxonomically more informative as compared to smaller fragments. In brief, mothur (v. 1.42.0) was used to assemble reads into contigs, perform alignment-based quality filtering (alignment to the mothur-reconstructed SILVA SEED alignment, v. 123), remove chimeras, assign taxonomy using a naïve Bayesian classifier and SILVA NR v132 and cluster contigs into OTUs. All sequences classified as Eukaryota, Archaea, Chloroplasts and Mitochondria were removed, as well as sequences that could not be classified. For each OTU, representative sequences were selected as the most abundant sequence within that OTU.

[2] = test system: Coprococcus; assay: Clinical study of colon-targeted vitamins; fecal relative abundance of Coprococcus by shotgun metagenomics; type: in vivo; details: human feces, colon-targeted delivery for four weeks, compared to baseline
Description: Twelve participants were allocated to each of the six vitamin groups, and 24 participants allocated to the placebo group. […] To be considered eligible for enrolment into the study, participants have to be able to give written informed consent; be aged between 20 and 50 years of age; have a BMI of between 18.5 - 30 Kg/m2; have a stable body weight (< 5% change) over the past 3-months; be in generally good health, as determined by the investigator; have not consumed dietary supplements, prebiotic, probiotic, dietary or fiber-rich supplements within 4 weeks prior to baseline visit and be willing to avoid these supplements until the end of the study; be willing to avoid liver consumption for the duration for the study, be willing to maintain their current level of physical activity for the duration of the study; and be willing to consume the IP daily for the duration of the study. Any participants who have a typical fiber intake >30 g/day; were pregnant or planning to become pregnant, have consumed disallowed medications; had made major dietary changes over the past three months or had planned major lifestyle changes; had taken part in a study within the previous 60 days; or had any ongoing or previous illness that the investigator deemed would impact on the objectives of the study were excluded. […] Each subject provided written informed consent before inclusion in the study.
At the final visit (Visit 3) participants retuned a fecal samples collected in the previous 48 hours. […] Participants returned their IP and compliance was assessed. […]

[3] = test system: Coprococcus comes; assay: Clinical study of colon-targeted vitamins; fecal relative abundance of Coprococcus comes by shotgun metagenomics; type: in vivo; details: human feces, colon-targeted delivery for four weeks
Description: Twelve participants were allocated to each of the six vitamin groups, and 24 participants allocated to the placebo group. All 96 participants completed the intervention. To be considered eligible for enrolment into the study, participants have to be able to give written informed consent; be aged between 20 and 50 years of age; have a BMI of between 18.5 - 30 Kg/m2; have a stable body weight (< 5% change) over the past 3-months; be in generally good health, as determined by the investigator; have not consumed dietary supplements, prebiotic, probiotic, dietary or fiber-rich supplements within 4 weeks prior to baseline visit and be willing to avoid these supplements until the end of the study; be willing to avoid liver consumption for the duration for the study, be willing to maintain their current level of physical activity for the duration of the study; and be willing to consume the IP daily for the duration of the study. […]
The trial was a randomized, double-blind, placebo-controlled, parallel study in which subjects received either the vitamin supplement or placebo over four weeks. […] Before the randomization visit, participants food frequency questionnaires were analyzed to ensure their typical fiber intake is <30 g fiber/day. […]
At the baseline visit (Visit 2), participants retuned a fecal samples collected in the previous 48 hours and eligibility was assessed. […]

Question: For CC1=C(/C=C/C(C)=C/C=C/C(C)=C/C=C/C=C(C)/C=C/C=C(C)/C=C/C2=C(C)CCCC2(C)C)C(C)(C)CCC1 [beta-carotene, β-carotene], which Coprococcus relative abundance ([1]; dose 1x) is on record?
Answer: Its Coprococcus relative abundance is “increased”.

Question: What about the Coprococcus relative abundance ([1]; dose 5x) of the same compound?
Answer: Its Coprococcus relative abundance is “increased”.

Question: How did the Coprococcus relative abundance ([1]; doses 0.2x, 1x, 5x tested) turn out when NC(=O)c1cccnc1 [vitamin B3, Niacinamide] was run?
Answer: The Coprococcus relative abundance was “no distinct increase”.

Question: How did the Coprococcus relative abundance ([1]; dose 0.2x) turn out when CC(C)(CO)[C@@H](O)C(=O)NCCC(=O)O [vitamin B5, Pantothenic acid] was run?
Answer: The Coprococcus relative abundance was “increased”.

Question: And the Coprococcus relative abundance ([1]; dose 5x)?
Answer: Its Coprococcus relative abundance is “increased”.

Question: O=C(O)CCCC[C@@H]1SC[C@@H]2NC(=O)N[C@@H]21 [vitamin B7, Biotin] was tested. Which Coprococcus relative abundance ([1]; doses 0.2x, 1x, 5x tested) did it give?
Answer: Its Coprococcus relative abundance is “no distinct increase”.

Question: Which “relative abundance of Coprococcus” value [2] does the source give for O=C1O[C@H]([C@@H](O)CO)C(O)=C1O [vitamin C, ascorbic acid] here?
Answer: Its value is “not”.

Question: For C=C1CC[C@H](O)C/C1=C/C=C1\CCC[C@]2(C)[C@@H]([C@H](C)CCCC(C)C)CC[C@@H]12 [vitamin D3, cholecalciferol], which “Coprococcus comes relative abundance” value ([3]; compared to baseline (p = 0.04)) is on record?
Answer: Its value is “significant increase”.

Question: What about the “Coprococcus comes relative abundance” value ([3]; compared to placebo group (p = 0.028)) of the same compound?
Answer: The value was “significant increase”.

Question: What about the “relative abundance of Coprococcus” value [2] of the same compound?
Answer: Its value is “trends for an increase”.

Question: vitamin A was tested. Which “relative abundance of Coprococcus” value [2] did it give?
Answer: Its value is “trends for an increase”.
